Laboratory results published in US11780834B2, “Solid forms of 3-((1R,3R)-1-(2,6-difluoro-4-((1-(3-fluoropropyl)azetidin-3-yl)amino)phenyl)-3-methyl-1,3,4,9-tetrahydro-2H-pyrido[3,4-b]indol-2-yl)-2,2-difluoropropan-1-ol and processes for preparing fused tricyclic compounds comprising a substituted phenyl or pyridinyl moiety, including methods …” (Hoffmann-La Roche Inc., priority 2018, dated 2023).
Where “and” joins values, the source holds several entries; their conditions need not be identical. Equal entries are not always repeated. Structures can show the parent of a compound that is named as a salt. Where two headings read alike, the source gives them in different places.

Experiments:
[1] = Approximate solubility of Compound B Form B material in 20 solvents at RT; type: physicochemical
Protocol: Polymorph Screening of L-Tartrate. The solubility of Compound B Form B material was estimated in 20 solvents at RT. (Table 22). Approximately 2 mg solids were added into a 3-mL glass vial. Solvents in Table 6-7 were then added into the vials stepwise until the solids were dissolved or a total volume of 1 mL was reached. Results of Table 22 were used to guide the solvent selection in polymorph screening. Polymorph screening experiments were performed using different solution crystallization or solid phase transition methods.

[2] = Stress stability of solid forms at elevated temperature and humidity (XRPD, impurities); type: physicochemical; conditions: 40° C./75% RH, one month, tartrate
Protocol: Preliminary stress stability analysis of Compound B Form B. The XRPD patterns of Compound A salts (fumarate and tartrate) exposed to 40° C./75% RH for one month under open conditions.
XRPD of one-month stability sample.

[3] = test system: LBD of both wild-type and mutant ER; assay: Competitive binding to ER ligand-binding domain
[4] = molecular target: ER (Homo sapiens, UniProt P03372); assay: ER degradation and ER pathway suppression; type: cell-based; conditions: compared to GDC-0927 and GDC-0810
[5] = test system: ER-positive breast cancer cell lines; assay: Proliferation of ER-positive breast cancer cell lines in vitro; type: cell-based; conditions: multiple ER-positive breast cancer cell lines, including cells engineered to express clinically relevant ER mutations
[6] = Oral bioavailability in rats and dogs; conditions: rat, dog, in vivo
[7] = Oral bioavailability in monkeys; conditions: monkey, in vivo
[8] = In vitro metabolite identification; type: in vitro ADME
[9] = molecular target: T1, CYP2B6 (Homo sapiens, UniProt P20813); assay: CYP2B6 inhibition in human liver microsomes; type: in vitro ADME
T1 construct: from tissue; host or cells: human liver microsomes
T1 sequence (P20813 1-491): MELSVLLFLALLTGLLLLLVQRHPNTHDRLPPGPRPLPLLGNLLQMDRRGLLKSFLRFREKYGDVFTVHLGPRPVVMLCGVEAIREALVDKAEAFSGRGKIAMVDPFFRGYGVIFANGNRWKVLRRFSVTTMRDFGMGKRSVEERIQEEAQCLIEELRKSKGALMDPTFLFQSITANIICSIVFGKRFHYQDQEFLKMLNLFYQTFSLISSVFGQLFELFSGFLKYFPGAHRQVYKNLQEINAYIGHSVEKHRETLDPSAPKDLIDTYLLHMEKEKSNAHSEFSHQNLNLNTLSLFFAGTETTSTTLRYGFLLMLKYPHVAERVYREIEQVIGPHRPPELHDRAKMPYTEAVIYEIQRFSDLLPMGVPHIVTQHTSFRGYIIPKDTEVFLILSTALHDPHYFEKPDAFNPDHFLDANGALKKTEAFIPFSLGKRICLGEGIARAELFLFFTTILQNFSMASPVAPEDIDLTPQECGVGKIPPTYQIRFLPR

[10] = molecular target: T2, CYP2C8 (Homo sapiens, UniProt P10632); assay: CYP2C8 inhibition in human liver microsomes; type: in vitro ADME
T2 construct: from tissue; host or cells: human liver microsomes
T2 sequence (P10632 1-490): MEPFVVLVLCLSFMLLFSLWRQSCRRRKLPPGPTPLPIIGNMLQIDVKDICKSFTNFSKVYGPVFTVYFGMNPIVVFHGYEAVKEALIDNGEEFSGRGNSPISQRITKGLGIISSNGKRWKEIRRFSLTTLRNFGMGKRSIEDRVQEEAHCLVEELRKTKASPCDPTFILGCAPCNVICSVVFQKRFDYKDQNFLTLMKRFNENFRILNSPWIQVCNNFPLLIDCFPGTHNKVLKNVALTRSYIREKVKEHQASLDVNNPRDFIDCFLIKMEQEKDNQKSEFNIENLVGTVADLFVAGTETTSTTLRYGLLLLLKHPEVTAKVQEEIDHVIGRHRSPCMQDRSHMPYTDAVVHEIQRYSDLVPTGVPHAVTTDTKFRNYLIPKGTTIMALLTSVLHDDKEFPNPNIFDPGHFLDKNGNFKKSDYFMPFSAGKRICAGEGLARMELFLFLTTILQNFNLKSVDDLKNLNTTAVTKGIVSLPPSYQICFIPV

[11] = molecular target: T3, CYP2C9 (Homo sapiens, UniProt P11712); assay: CYP2C9 metabolism dependent inhibition; type: in vitro ADME
T3 construct: from tissue; host or cells: human liver microsomes

[12] = test system: CYP; assay: In vitro CYP inhibition (human liver microsomes) and induction (human hepatocytes) studies; type: in vitro ADME; conditions: induction in human hepatocytes
[13] = test system: xenograft models of ER-positive breast cancer
[14] = molecular target: CYP3A4 (Homo sapiens, UniProt P08684); conditions: read-out: CYP3A4 inhibition IC50, direct inhibition, human liver microsomes
[15] = female, rat, in vivo, po, 28 days
[16] = monkey, in vivo
[17] = test system: locally advanced or metastatic ER-positive breast cancer; conditions: for Response / Response, per cent in parentheses: one line per patient
Protocol: (§1) Patients were enrolled in a dose-escalation stage with enrollment in an expansion stage to follow. During the single-agent dose escalation, cohorts were evaluated at escalating dose levels to determine the MTD or maximum administered dose (MAD).
Patients were monitored for adverse events during a dose-limiting toxicity (DLT) assessment window, defined as Days −7 to 28 of Cycle 1 (single-agent cohorts). For DLT evaluation, toxicity was graded according to the National Cancer Institute Common Terminology Criteria for Adverse Events, Version 4.0 (NCI CTCAE v4.0).
Patients enrolled in the single-agent Compound B dose-escalation stage, which consists of a screening period, a PK lead-in period, a treatment period, and a safety follow-up period. Continuous once daily dosing was commenced during the treatment period starting on Cycle 1 Day 1. […] The dose will be increased by up to 200% of the preceding dose level for each successive cohort, until a safety finding of concern (i.e., either a DLT, any patient with Grade ≥2 clinically significant toxicity or overall adverse event profile inappropriate for 200% increments) is observed. Once safety findings of concern are observed, dose escalation will not exceed 100% increments.

[18] = in vivo
Protocol: as §1
(§2) Continuous once daily dosing was commenced during the treatment period starting on Cycle 1 Day 1.

[19] = clinical; conditions: human, in vivo, po
Protocol: as §1, §2

Chain of CYP3A4 (P08684 whole entry): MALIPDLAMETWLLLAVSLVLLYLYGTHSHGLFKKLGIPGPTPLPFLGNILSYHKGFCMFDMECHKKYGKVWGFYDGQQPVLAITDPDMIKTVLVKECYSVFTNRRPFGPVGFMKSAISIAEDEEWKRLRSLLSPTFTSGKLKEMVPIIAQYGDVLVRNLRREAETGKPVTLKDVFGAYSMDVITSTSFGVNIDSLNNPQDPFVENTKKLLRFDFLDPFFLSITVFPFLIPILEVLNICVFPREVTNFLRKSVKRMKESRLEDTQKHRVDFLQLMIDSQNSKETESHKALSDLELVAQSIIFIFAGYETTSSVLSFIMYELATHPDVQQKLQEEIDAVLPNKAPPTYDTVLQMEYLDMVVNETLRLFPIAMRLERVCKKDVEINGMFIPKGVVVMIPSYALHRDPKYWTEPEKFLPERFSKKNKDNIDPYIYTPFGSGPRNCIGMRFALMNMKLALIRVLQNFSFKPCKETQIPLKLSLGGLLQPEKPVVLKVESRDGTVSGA
T3 sequence (P11712 whole entry): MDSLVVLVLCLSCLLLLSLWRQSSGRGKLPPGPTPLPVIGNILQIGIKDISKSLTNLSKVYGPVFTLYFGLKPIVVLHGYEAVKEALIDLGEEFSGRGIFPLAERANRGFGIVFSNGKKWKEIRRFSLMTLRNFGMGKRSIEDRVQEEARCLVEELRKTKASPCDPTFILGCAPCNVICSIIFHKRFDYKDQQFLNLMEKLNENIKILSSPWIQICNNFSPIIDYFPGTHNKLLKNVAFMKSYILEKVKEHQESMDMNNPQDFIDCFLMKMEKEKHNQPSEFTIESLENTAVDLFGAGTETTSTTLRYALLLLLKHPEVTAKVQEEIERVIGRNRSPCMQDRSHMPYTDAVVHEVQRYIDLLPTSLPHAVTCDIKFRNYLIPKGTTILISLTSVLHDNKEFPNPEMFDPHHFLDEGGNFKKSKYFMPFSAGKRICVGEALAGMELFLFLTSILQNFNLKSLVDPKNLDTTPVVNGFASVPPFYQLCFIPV
Chain of ER (P03372 whole entry): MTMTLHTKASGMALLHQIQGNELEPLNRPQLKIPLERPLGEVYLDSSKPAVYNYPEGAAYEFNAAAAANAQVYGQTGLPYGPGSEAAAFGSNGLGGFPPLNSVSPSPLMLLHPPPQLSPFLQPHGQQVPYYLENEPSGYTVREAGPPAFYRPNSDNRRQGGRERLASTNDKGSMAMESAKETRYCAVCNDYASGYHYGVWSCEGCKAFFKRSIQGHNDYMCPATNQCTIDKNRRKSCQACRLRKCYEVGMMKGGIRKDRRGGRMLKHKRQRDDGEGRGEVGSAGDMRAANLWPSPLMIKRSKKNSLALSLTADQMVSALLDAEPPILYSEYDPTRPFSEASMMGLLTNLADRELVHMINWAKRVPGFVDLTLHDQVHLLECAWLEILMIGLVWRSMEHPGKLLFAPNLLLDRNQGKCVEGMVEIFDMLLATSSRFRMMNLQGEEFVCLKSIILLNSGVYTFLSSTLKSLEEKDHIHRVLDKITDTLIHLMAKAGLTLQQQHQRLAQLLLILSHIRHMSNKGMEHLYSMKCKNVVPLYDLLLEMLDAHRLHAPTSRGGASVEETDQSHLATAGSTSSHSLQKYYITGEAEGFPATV

SMILES: C[C@@H]1Cc2c([nH]c3ccccc23)[C@@H](c2c(F)cc(NC3CN(CCCF)C3)cc2F)N1CC(F)(F)CO [Compound B, 3-((1R,3R)-1-(2,6-difluoro-4-((1-(3-fluoropropyl)azetidin-3-yl)amino)phenyl)-3-methyl-1,3,4,9-tetrahydro-2H-pyrido[3,4-b]indol-2-yl)-2,2-difluoropropan-1-ol tartrate]
- solubility ([1]; organic solvent or mixture, thermodynamic from solid, 1,4-Dioxane): < 2200 µg/mL
- solubility ([1]; organic solvent or mixture, thermodynamic from solid, 2-MeTHF): < 1900 µg/mL
- solubility ([1]; organic solvent or mixture, thermodynamic from solid, ACN): < 2100 µg/mL
- solubility ([1]; organic solvent or mixture, thermodynamic from solid, Acetone): 2100 to 7000 µg/mL
- solubility ([1]; organic solvent or mixture, thermodynamic from solid, Anisole): < 1900 µg/mL
- solubility ([1]; organic solvent or mixture, thermodynamic from solid, CPME): < 2100 µg/mL
- solubility ([1]; organic solvent or mixture, thermodynamic from solid, DCM): < 2000 µg/mL
- solubility ([1]; organic solvent or mixture, thermodynamic from solid, DMSO): > 38000 µg/mL
- solubility ([1]; organic solvent or mixture, thermodynamic from solid, EtOAc): < 1900 µg/mL
- solubility ([1]; organic solvent or mixture, thermodynamic from solid, EtOH): < 1900 µg/mL
- solubility ([1]; organic solvent or mixture, thermodynamic from solid, IPA): < 2100 µg/mL
- solubility ([1]; organic solvent or mixture, thermodynamic from solid, IPAc): < 1900 µg/mL
- solubility ([1]; organic solvent or mixture, thermodynamic from solid, MEK): < 2000 µg/mL
- solubility ([1]; organic solvent or mixture, thermodynamic from solid, MIBK): < 1900 µg/mL
- solubility ([1]; organic solvent or mixture, thermodynamic from solid, MTBE): < 2100 µg/mL
- solubility ([1]; organic solvent or mixture, thermodynamic from solid, MeOH): 6700 to 20000 µg/mL
- solubility ([1]; organic solvent or mixture, thermodynamic from solid, THF): 2100 to 7000 µg/mL
- solubility ([1]; organic solvent or mixture, thermodynamic from solid, Toluene): < 1900 µg/mL
- solubility ([1]; organic solvent or mixture, thermodynamic from solid, n-Heptane): < 2000 µg/mL
- solubility ([1]; water, thermodynamic from solid, H2O): < 1900 µg/mL
- Solid form (XRPD) after stress stability ([2]; open): did not change
- Impurities after stress stability ([2]; listed as tartrate salt): lacked the impurities
- Potency of competitive binding to ER LBD [3]: nanomolar potency
- ER degradation & ER pathway suppression [4]: superior
- Inhibition of proliferation [5]: potently inhibits
- bioavailability [6]: 41 to 55%
- bioavailability [7]: 17%
- Major in vitro metabolic pathway [8]: UGT1A4-mediated glucuronidation
- IC50 [9]: 13 µM
- IC50 [10]: 21 µM
- Metabolism dependent inhibition of CYP2C9 [11]: weak
- Potential for drug-drug interactions [12]: low-to-moderate
- Tolerability of doses in xenograft models ([13]; in vivo): well tolerated
- Anti-tumor activity ([13]; including patient-derived xenograft with ESR1 mutation (ER.Y537S)): dose-dependent anti-tumor activity
- Fold lower dose giving same in vivo efficacy as GDC-0927 ([13]; vs GDC-0927): 100 ×
- Efficacious dose range ([13]; xenograft models): 0.1 to 10 mg/kg/day
- IC50 ([14]; midazolam 1′-hydroxylation): 6.5 µM
- IC50 ([14]; testosterone 6β-hydroxylation): 26 µM
- Severely toxic dose for 10% of animals (STD10) [15]: 100 mg/kg
- Highest non-severely toxic dose ([16]; female, po, 28 days): 60 mg/kg/day
- Tolerability at high dose ([16]; 200 mg/kg): not tolerated
- Response of individual patient (CT, FES-PET) ([17]; 10 mg, after 3 cycles): showed response
- FES-PET response ([17]; all treated patients with FES-PET, qualitative): near-complete (NC) or complete responses (CR)
- Response ([17]; cohort 1 (10 mg), tartrate): uPR
- Response, per cent in parentheses ([17]; cohort 1 (10 mg), tartrate): −40% and −27%
- Response ([17]; cohort 1-BF (10 mg)): cPD
- Response, per cent in parentheses ([17]; cohort 2 (30 mg)): −9%
- DLTs, SAEs, AESIs, clinically significant laboratory abnormalities ([17]; in vivo): no observed
- Plasma exposure vs dose [18]: increased proportionally
- Steady state exposure vs dose [18]: higher than dose proportional
- half-life [19]: ~40 h
